Values of other authors as cited in patent publication US4410516A, “1-N(αHydroxy-ω-aminoalkanoyl) derivatives of 5,3',4'-trideoxy- or 5,3', 4'-trideoxy-6'-N- methyl- or 5, 3', 4',6"-tetradeoxykannamyci B and production thereof” (Zaidan Hojin Biseibutsu Kagaku Kenkyu Kai, priority 1981, dated 1983).
“Also recorded” adds a separate entry of the source.

Columns and labels:
animals, including men = details: in words, other filings; cited from earlier work
bacteria = details: in words, earlier work / other filings; cited from earlier work
[1] = in words, other filings; cited from earlier work

| Compound | acute toxicity (animals, including men) | antibacterial activity (bacteria) | oto-toxicity [1] |
| --- | --- | --- | --- |
| C[C@@H]1C[C@H](N)[C@@H](O)[C@@H](O[C@@H]2[C@@H](O)[C@H](O[C@H]3O[C@H](CN)CC[C@H]3O)[C@@H](N)C[C@H]2NC(=O)[C@@H](O)CCN)O1 [3',4',4",6"-tetradeoxyamikacin] | low acute toxicity | useful antibacterial activity as high as that of amikacin | low oto-toxicity |
| C[C@H]1O[C@H](O[C@@H]2[C@@H](O)[C@H](O[C@H]3O[C@H](CN)CC[C@H]3O)[C@@H](N)C[C@H]2NC(=O)[C@@H](O)CCN)[C@H](O)[C@@H](N)[C@@H]1O [3',4',6"-trideoxyamikacin] | low acute toxicity | useful antibacterial activity as high as that of amikacin | low oto-toxicity |
| NCC[C@H](O)C(=O)N[C@@H]1C[C@H](N)[C@@H](O[C@H]2O[C@H](CN)CC[C@H]2O)[C@H](O)[C@H]1O[C@H]1O[C@H](CO)[C@@H](O)[C@H](N)[C@H]1O [3',4'-dideoxyamikacin] | low acute toxicity | useful antibacterial activity as high as that of amikacin | low oto-toxicity |
| C[C@H]1O[C@H](O[C@@H]2[C@@H](O)[C@H](O[C@H]3O[C@H](CN)[C@@H](O)C[C@H]3O)[C@@H](N)C[C@H]2NC(=O)[C@@H](O)CCN)[C@H](O)[C@@H](N)[C@@H]1O [3',6"-dideoxyamikacin] | low acute toxicity | useful antibacterial activity as high as that of amikacin | low oto-toxicity |
| NCC[C@H](O)C(=O)N[C@@H]1C[C@H](N)[C@@H](O[C@H]2O[C@H](CN)[C@@H](O)C[C@H]2O)[C@H](O)[C@H]1O[C@H]1O[C@H](CO)[C@@H](O)[C@H](N)[C@H]1O [3'-deoxyamikacin] | low acute toxicity | useful antibacterial activity as high as that of amikacin | low oto-toxicity |
| C[C@@H]1C[C@H](N)[C@@H](O)[C@@H](O[C@@H]2[C@@H](O)[C@H](O[C@H]3O[C@H](CN)[C@@H](O)[C@H](O)[C@H]3O)[C@@H](N)C[C@H]2NC(=O)[C@@H](O)CCN)O1 [4",6"-dideoxyamikacin] | low acute toxicity | useful antibacterial activity as high as that of amikacin | low oto-toxicity |
| NC[C@@H]1CC[C@@H](N)[C@@H](O[C@H]2C[C@@H](O[C@H]3O[C@H](CO)[C@@H](O)[C@H](N)[C@H]3O)[C@H](N)C[C@@H]2N)O1 [5,3',4'-trideoxykanamycin B] | – | less active than dibekacin; also recorded: exhibits no useful anti-bacterial activity | – |
| C[C@H]1O[C@H](O[C@@H]2C[C@H](O[C@H]3O[C@H](CN)[C@@H](O)C[C@H]3O)[C@@H](N)C[C@H]2NC(=O)[C@@H](O)CCN)[C@H](O)[C@@H](N)[C@@H]1O [5,3',6"-trideoxyamikacin] | low acute toxicity | useful antibacterial activity as high as that of amikacin | low oto-toxicity |
| NCC[C@H](O)C(=O)N[C@@H]1C[C@H](N)[C@@H](O[C@H]2O[C@H](CN)[C@@H](O)C[C@H]2O)C[C@H]1O[C@H]1O[C@H](CO)[C@@H](O)[C@H](N)[C@H]1O [5,3'-dideoxyamikacin] | low acute toxicity | useful antibacterial activity as high as that of amikacin | low oto-toxicity |
| C[C@H]1O[C@H](O[C@@H]2[C@@H](O)[C@H](O[C@H]3O[C@H](CN)[C@@H](O)[C@H](O)[C@H]3O)[C@@H](N)C[C@H]2NC(=O)[C@@H](O)CCN)[C@H](O)[C@@H](N)[C@@H]1O [6"-deoxyamikacin] | low acute toxicity | useful antibacterial activity as high as that of amikacin | low oto-toxicity |
| NC[C@@H]1CC[C@@H](N)[C@@H](O[C@H]2[C@H](O)[C@@H](O[C@H]3O[C@H](CO)[C@@H](O)[C@H](N)[C@H]3O)[C@H](N)C[C@@H]2N)O1 [Dibekacin, 3',4'-dideoxykanamycin B] | – | active against the kanamycin-sensitive bacteria and also against various kanamycin-resistant bacteria | – |
